From patent publication US20260325465A1, “SHP-1 INHIBITORS FOR TREATING CANCER” (MDX MANAGEMENT LLC, priority 2022, published 2026)
Entries after “also recorded” stand apart in the source; their conditions may differ.

What was measured:
SHP-1 [1] = target: T1, SHP-1 (Mus musculus, UniProt P29351); experiment: Pulse inhibition of SHP-1 in macrophages, SHP-1 activity (pNpp) over time; type: cell-based, murine
T1 construct: lysate pNpp phosphatase activity after TPI-1 pulse
Method: FIGS. 4A and 4B depict that pulse inhibition of SHP-1 transiently enhances proinflammatory signal transduction in macrophages. FIG. 4A: murine macrophages (bone marrow derived macrophages, or “BMDM”) were treated with TPI-1 for 15 min followed by wash to complete removal of TPI-1. At different time points after the TPI-1 treatment, macrophages were stimulated with IFNγ/LPS in the presence of alive cancer cells (1:1 ratio to BMDM) for 20 min prior to cell lysis and assaying SHP-1 activity using pNpp and WB detecting total and phosphorylated STAT1 and Erk1/2. FIG. 4B: the same setting as in FIG. 4A, except that after TPI-1 treatment, TPI-1 in medium was partially removed (50%) or without removal, followed by macrophage stimulation with IFNγ/LPS at different time points.

[2] = test system: MC38 colorectal carcinoma; experiment: αTLR-induced inflammation in MC38 tumor-bearing mice with or without TPI-1; type: in vivo, C57BL6 mice
From the text: FIGS. 17A-17C depict inhibition of SHP-1 (iShp1) abrogates tumor-imposed immune suppression under pro-inflammatory challenges. FIG. 17A depicts neutrophil infiltration in different organs measured at various time point following αTLR challenge. FIG. 17B depicts neutrophil infiltration in tumor tissues in mice treated with αTLR plus TPI-1. FIG. 17C depicts the phenotype of intratumoral macrophages.
MC38 colorectal carcinoma was established (via subcutaneous administration) in syngeneic C57BL6 mice. After tumor sizes reached more than 200 mm^3, the tumor-bearing mice were induced systemic inflammatory condition by TLR agonists (αTLR, CpG/PolyIC/R848, each 25 μg) administrated via subcutaneous administration at the location distal from MC38 tumor. A group of mice were concurrently administrated with TPI-1 (1 mg/kg) via subcutaneous administration to achieve systemic SHP-1 inhibition.

Study-4: adverse effects = type: in vivo, mice; conditions: TPI-1 with TLR agonists (each 50 μg), i.p.
Method: FIGS. 14A-14E depict that pulse-intermittent inhibition of SHP-1 (iSHP-1) combined with TLR agonists (αTLR) treating late-stage KPC pancreatic ductal adenocarcinoma. FIG. 14A depicts the treatment scheme. Mice with large KPC tumors were treated (i.p.) consecutively for three days with TPI-I plus TLR agonists (CpG, PolyIC and R848, each 50 μg). After the initial pulse treatment, an intermittent period of 9-day was given before the 2nd cycle of treatment of two days with TPI plus TLR agonists. FIG. 14B depicts the luminescent images of mice with KPC tumor during the course of treatment. FIG. 14C depicts tumor volume changes.

[3] = Study-1: continuous vs intermittent iSHP-1 with TLR agonists, adverse toxicity; type: in vivo, mice; conditions: i.p.
Method: FIGS. 11A-11E depict the impact of continuous or intermittent iShp-1 treatment on the efficacy and adverse toxicity. FIG. 11A depicts the study design. Mice with KPC pancreatic cancer were either continuously treated with TPI-1 (1× per day) or in an intermittent fashion with gapping days between two treatments (intermittent). Three doses, 1, 3 and 10 mg/kg (i.p.), were tested and TLR agonists (CpG plus PolyI:C, each 10 μg, i.p., 1× every 3 day) was given to kickstart inflammatory response. […] Tumor imaging (FIG. 11B) and volume change records (FIG. 11C) indicate similar efficacies of iShp-1 with continuous or intermittent schemes.
Tumor model: Single engraftment of KPC pancreatic adenocarcinoma
Treatments & dosing strategies: i) iSHP-1—TPI-1, 1, 3, and 10 mg/kg; i.p. either 1× per day (continuous), or following an intermittent schedule depicted in FIG. 11. ii) TLR agonists (αTLR)—CpG, PolyI:C, each 10 μg; i.p. every 3 days

SHP-1 [4] = experiment: SHP-1 activity in macrophages under proinflammatory stimulation and cancer cell ligation; type: cell-based; conditions: IFNγ/LPS stimulation, cancer cell ligation
Method: FIGS. 2A-2G depict that the inhibition of SHP-1 enhances macrophage proinflammatory response, antigen presentation and phagocytosis in a tumor milieu. FIG. 2A and FIG. 2B depict that SHP-1 activity in macrophages is triggered by proinflammatory stimulation and the extracellular cancer cell ligation (“touching”) of macrophages (green bar in FIG. 2A). […] The SHP-2 inhibitor SHP099 (1 μg/ml) was used in assays. FIG. 2C depicts the inhibition of SHP-1 by TPI-1 dose-dependently recovers IFNγ/LPS-induced activation of STAT1 (p-STAT1) and Erk1/2 (p-Erk1/2) de-activated by SHP-1 (red line). FIG. 2D and FIG. 2E depict that the inhibition of SHP-1 in macrophages by TPI-1 enhances production of proinflammatory cytokines (FIG. 2D) and expression of immunogenic antigen presentation machinery (FIG. 2E) by IFNγ/LPS in a tumor milieu. […] The SHP-1 and SHP-2 inhibitors TPI-1 and SHP099, respectively, was used at 1 μg/ml in assays.
FIGS. 3A-3E depict modulation of SHP-1 activity in proinflammatory macrophages in cancer. Macrophages co-cultured with cancer cells were stimulated with IFNγ/LPS or TLR agonists (αTLR) comprising CpG, polycytidylic acid (i.e., PolyI:C) and R848 (each 0.4 μg/ml) for 30 min (37 °C) in the presence or the absence of different SHP-1 or SHP-2 inhibitor or activator, followed by cell lysis and assays of PTP activity. FIG. 3A depicts SHP-1 activity regulation mechanisms. […] FIG. 3E depicts that PKCθ negatively regulates SHP-1 activity at a moderate level.
In addition to TPI-1, several other SHP-1 inhibitors such as PTP inhibitor-I, PTP inhibitor-III, and recently reported vitamin E (9, 10) and phomoxanthone A and B (P×A and P×B) (11) were tested. Given that PKCθ modulates SHP-1 activity through phosphorylating Ser591 (12, 13), PKCθ inhibitor and activator were also tested in various assays.

solid tumors = experiment: Intermittent period after TPI-1 combined therapy in tumors; type: in vivo, murine; conditions: TPI-1 combined with TLR agonists or RT
From the text: Furthermore, these analyses of the TME immune landscape changes following TPI-1 combined therapies informed our design of the pulse-intermittent SHP-1 inhibition strategy for metastatic solid tumors. […] Along with macrophage reduction, tumor-associated SHP-1 activities also dwindled, a change that ousted the necessity of continuous TPI-1 application. This “intermittent” period lasted 3-6 days, a length dependent on TPI-1 and TLR agonists/RT dosages, as well as tumor type and stage prior to treatment. […] Consistent with these changes, the tumors after the intermittent period were reverted to growth, unless another cycle of TPI-1 combined therapy was applied, which were again effectively suppressing tumors.

T1 sequence (P29351 whole entry): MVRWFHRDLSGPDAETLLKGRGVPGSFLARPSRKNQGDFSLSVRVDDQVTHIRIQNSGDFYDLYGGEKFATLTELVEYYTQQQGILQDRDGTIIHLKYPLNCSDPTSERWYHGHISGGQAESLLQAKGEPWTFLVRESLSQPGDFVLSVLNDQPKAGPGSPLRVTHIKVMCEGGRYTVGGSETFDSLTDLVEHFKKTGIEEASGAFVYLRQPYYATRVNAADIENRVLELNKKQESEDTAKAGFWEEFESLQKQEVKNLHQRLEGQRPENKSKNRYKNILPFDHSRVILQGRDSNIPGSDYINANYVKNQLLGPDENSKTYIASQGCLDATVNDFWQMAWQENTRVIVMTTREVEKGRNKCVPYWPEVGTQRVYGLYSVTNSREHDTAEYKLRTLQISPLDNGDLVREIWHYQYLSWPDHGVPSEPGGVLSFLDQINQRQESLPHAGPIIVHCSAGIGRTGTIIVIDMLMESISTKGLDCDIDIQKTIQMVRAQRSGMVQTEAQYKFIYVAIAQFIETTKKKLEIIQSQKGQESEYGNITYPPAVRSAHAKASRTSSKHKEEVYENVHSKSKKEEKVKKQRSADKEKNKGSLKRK

O=C1C=CC(=O)C(c2cc(Cl)ccc2Cl)=C1 [TPI-1]
duration of pulse SHP-1 inhibition before activity starts to recover (SHP-1 [1]; 15 min treatment, then wash): 5 to 8 h | time for SHP-1 activity to recover to over 50% (SHP-1 [1]; 15 min treatment, then wash): 12 to 16 h | SHP-1 total protein (SHP-1 [1]; after pulse inhibition): did not appear to vary | SHP-1 inhibition (in words) (SHP-1 [1]; immediately after 15 min treatment and wash): strong SHP-1 inhibition | SHP-1 activity recovered (SHP-1 [1]; in 12-16 h after 15 min treatment and wash): over 50% | time to recover SHP-1 activity after pulse inhibition (SHP-1 [1]; pulse inhibition in macrophages): 24 h | SHP-1 inhibition without or with partial inhibitor removal (SHP-1 [1]; without removal or 50% removal): elongated inhibition on the SHP-1 activity | TNFα and IL12 expression of intratumoral macrophages ([2]; TPI-1 1 mg/kg s.c. with αTLR): increased TNFα and IL12 expression | neutrophil infiltration in tumor ([2]; TPI-1 1 mg/kg s.c. with αTLR (CpG/PolyIC/R848, each 25 μg), 1 mg/kg): enabled neutrophil infiltration upon αTLR; also recorded: increased neutrophil infiltration in tumor tissues | adverse effects and body weight (Study-4: adverse effects): minor adverse effects and transient body weight loss followed by recovery | adverse effects, continuous dosing ([3]; 1× per day): incurred acute anemia, proteinuria, splenomegaly and lung inflammation | adverse effects, intermittent dosing ([3]; intermittent): did not display or were minor | SHP-1 activity in macrophages (effect in words) (SHP-1 [4]): potently inhibited SHP-1 activity at low concentrations | length of intermittent period with reduced macrophages and tumor growth restraint (solid tumors): 3 to 6 days
